{
  "source": "paper PMC5059758",
  "about": "“Structural characterization of antibiotic self-immunity tRNA synthetase in plant tumour biocontrol agent” (Nature Communications, 2016)",
  "key": {"[1]": {"biological_target": "T1, AgnB2 (TM84-resistant leucyl-tRNA synthetase) (Agrobacterium radiobacter K84 (plasmid pAgK84)) (UniProt B9JQP8)", "T1 sequence": "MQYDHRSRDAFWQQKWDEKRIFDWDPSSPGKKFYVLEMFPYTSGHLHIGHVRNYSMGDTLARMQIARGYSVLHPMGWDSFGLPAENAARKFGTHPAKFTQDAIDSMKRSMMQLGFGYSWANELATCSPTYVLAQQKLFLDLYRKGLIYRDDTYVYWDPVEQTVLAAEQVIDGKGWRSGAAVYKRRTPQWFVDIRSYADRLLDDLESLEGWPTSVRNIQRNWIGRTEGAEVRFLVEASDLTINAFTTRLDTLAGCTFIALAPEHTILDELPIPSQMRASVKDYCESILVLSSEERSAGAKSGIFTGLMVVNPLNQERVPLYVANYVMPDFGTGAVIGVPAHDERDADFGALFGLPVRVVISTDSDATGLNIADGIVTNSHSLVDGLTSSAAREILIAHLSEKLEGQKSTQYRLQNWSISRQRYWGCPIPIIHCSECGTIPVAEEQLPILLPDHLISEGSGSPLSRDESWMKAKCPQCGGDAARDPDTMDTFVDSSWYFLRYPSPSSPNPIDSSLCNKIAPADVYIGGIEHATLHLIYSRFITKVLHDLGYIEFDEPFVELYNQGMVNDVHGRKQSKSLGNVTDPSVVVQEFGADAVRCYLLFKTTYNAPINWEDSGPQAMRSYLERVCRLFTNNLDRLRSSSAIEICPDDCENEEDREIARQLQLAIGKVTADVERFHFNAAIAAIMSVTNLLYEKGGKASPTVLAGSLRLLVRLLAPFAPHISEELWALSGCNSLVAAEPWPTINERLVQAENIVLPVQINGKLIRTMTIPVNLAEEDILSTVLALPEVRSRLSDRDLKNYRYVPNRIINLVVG", "experiment": "ITC"}, "wt AgnB2 (LeuRS) [2]": {"biological_target": "T2, wt AgnB2 (LeuRS) (Agrobacterium radiobacter, UniProt B9JQP8)", "experiment": "Aminoacylation assay, wt AgnB2", "settings": "pH 7.4", "method": "Aminoacylation activities of AgnB2, LeuRSAt and their mutants were measured in 50 mM HEPES buffer (pH 7.4) containing 20 mM KCl, 25 mM MgCl2, 25 mM β-ME, 4 mM ATP, 500 μM [3,4,5-^3H] L-leucine (20 μCi/mmole), 5 μg/ml inorganic pyrophosphatase, 1 μM BSA, 10 μM of active in vitro transcribed tRNA^Leu and enzymes in the range of 2–8 nM. Reactions were pre-incubated with or without substrate and/or inhibitor and then carried out at 28 °C (37 °C-LeuRSHp). Aliquots of the reaction (5–10 μl) were quenched on 3 mM filter pads (Whatman, GE Healthcare) presoaked with 5% trichloroacetic acid (TCA). The pads were washed thrice with 5% TCA and 90% ethanol at 4 °C and then dried. The amount of Leu-tRNA^Leu was then quantified using scintillation counting. Each reaction was performed in triplicate and analyzed using Kaleidagraph (for Km and kcat determinations) or GraphPad Prism software (for IC50 determination)."}, "wt AgnB2 (LeuRS) [3]": {"biological_target": "T2, wt AgnB2 (LeuRS)", "experiment": "ATP/PPi exchange assay (amino acid activation), AgnB2", "settings": "28 °C, pH 7.4", "method": "The formation of Leu-AMP by ATP/PPi exchange assays was performed as described earlier[23][50]. Briefly, the reaction buffer contained 50 mM HEPES buffer (pH 7.4), 20 mM KCl, 10 mM MgCl2, 500 μM L-leucine, 4 mM ATP, 1 mM tetrasodium pyrophosphate (NaPPi), 10 μCi/mmol [^32P] NaPPi and 1 μM bovine serum albumin (BSA). The reaction was initiated by addition of 1–4 nM of active enzyme and incubated at 28 °C. Aliquots (5 μl each) were collected over 30 min and quenched in a 10% charcoal slurry containing 0.5% HCl and 50 μl of 200 mM sodium pyrophosphate in 1 M HCl. Liquid scintillation counting was then used to measure the amount of [^32P]-PPi incorporation into ATP that was adsorbed onto the charcoal."}, "wt AgnB2 (LeuRS) [4]": {"biological_target": "T2, wt AgnB2 (LeuRS)", "experiment": "Isothermal titration calorimetry, wt AgnB2", "type": "binding, Agrobacterium radiobacter K84", "settings": "ITC, ligand binding to AgnB2 alone, 28 °C, pH 7.4; read-out: Kd", "experimental": "(§1) Typically, about 4–8 μM active protein solution and a 10-fold higher ligand concentration were prepared in buffer containing 50 mM HEPES (pH 7.4), 20 mM KCl 10 mM MgCl2 and 1 mM β-ME. The titrations were carried out in triplicate at 28 °C. The data was then analyzed using Origin software (version 7) and fitted to a one-site or a two-site binding model to obtain the binding affinity (Kd), stoichiometry (N) and enthalpy (ΔH) for each complex."}, "LeuRSAt [5]": {"biological_target": "T3, LeuRSAt (Agrobacterium tumefaciens, UniProt Q8UBV2)", "T3 sequence (Q8UBV2 whole entry)": "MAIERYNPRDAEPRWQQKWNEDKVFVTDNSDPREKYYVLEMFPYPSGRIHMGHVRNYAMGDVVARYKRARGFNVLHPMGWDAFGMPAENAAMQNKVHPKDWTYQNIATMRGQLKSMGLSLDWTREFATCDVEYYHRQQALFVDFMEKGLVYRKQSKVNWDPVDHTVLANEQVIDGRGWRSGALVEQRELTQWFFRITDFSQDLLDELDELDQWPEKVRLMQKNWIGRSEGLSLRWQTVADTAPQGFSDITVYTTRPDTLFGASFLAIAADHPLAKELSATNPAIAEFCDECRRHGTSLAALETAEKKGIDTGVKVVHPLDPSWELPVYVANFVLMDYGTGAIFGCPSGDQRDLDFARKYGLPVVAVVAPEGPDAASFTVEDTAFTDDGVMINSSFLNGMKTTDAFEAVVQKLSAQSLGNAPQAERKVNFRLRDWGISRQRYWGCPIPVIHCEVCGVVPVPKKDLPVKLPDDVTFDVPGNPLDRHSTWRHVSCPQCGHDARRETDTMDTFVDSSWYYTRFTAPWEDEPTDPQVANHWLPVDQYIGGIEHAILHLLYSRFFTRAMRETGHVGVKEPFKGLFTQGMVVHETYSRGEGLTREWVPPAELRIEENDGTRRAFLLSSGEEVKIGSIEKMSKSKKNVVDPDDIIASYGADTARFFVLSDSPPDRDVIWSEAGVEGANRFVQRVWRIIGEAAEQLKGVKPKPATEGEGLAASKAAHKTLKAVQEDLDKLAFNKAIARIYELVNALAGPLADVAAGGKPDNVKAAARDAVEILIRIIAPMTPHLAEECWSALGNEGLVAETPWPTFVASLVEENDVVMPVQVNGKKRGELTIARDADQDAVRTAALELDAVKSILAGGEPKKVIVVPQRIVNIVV", "experiment": "Isothermal titration calorimetry, LeuRSAt", "set-up": "species or system A. tumefaciens", "settings": "ITC, Leu-AMS binding to LeuRSAt", "experimental": "as §1"}, "LeuRSAt [6]": {"biological_target": "T3, LeuRSAt", "experiment": "ATP/PPi exchange assay (amino acid activation), LeuRSAt", "type": "biochemical, A. tumefaciens", "settings": "28 °C, pH 7.4", "experimental": "The formation of Leu-AMP by ATP/PPi exchange assays was performed as described earlier. Briefly, the reaction buffer contained 50 mM HEPES buffer (pH 7.4), 20 mM KCl, 10 mM MgCl2, 500 μM L-leucine, 4 mM ATP, 1 mM tetrasodium pyrophosphate (NaPPi), 10 μCi/mmol [^32P] NaPPi and 1 μM bovine serum albumin (BSA). The reaction was initiated by addition of 1–4 nM of active enzyme and incubated at 28 °C. Aliquots (5 μl each) were collected over 30 min and quenched in a 10% charcoal slurry containing 0.5% HCl and 50 μl of 200 mM sodium pyrophosphate in 1 M HCl. Liquid scintillation counting was then used to measure the amount of [^32P]-PPi incorporation into ATP that was adsorbed onto the charcoal."}, "[7]": {"tested_on": "LeuRSAt (leucyl-tRNA synthetase)", "settings": "aminoacylation, substrate, 28 °C, pH 7.4; cited from earlier work"}, "[8]": {"settings": "aminoacylation, substrate, 28 °C"}},
  "data": [
    {"compound": "tRNALeu (agrobacterial)", "values": [
      {"measurement": "Kd", "setting": "[1]", "value": 310, "unit": "nM"}
    ]},
    {"compound": "CC(C)CC(N)C(=O)NS(=O)(=O)OCC1OC(n2cnc3c(N)ncnc32)C(O)C1O", "note": "(stereo not shown) [Leu-AMS, reference compound]", "values": [
      {"measurement": "inhibition of overall aminoacylation reaction", "setting": "wt AgnB2 (LeuRS) [2]; 20 nM Leu-AMS, 2 nM wt AgnB2, 28 °C", "value": "potently inhibited"},
      {"measurement": "inhibition of amino acid activation (Leu-AMP formation)", "setting": "wt AgnB2 (LeuRS) [3]; 25 nM Leu-AMS, 1 nM enzyme", "value": "potently inhibits"},
      {"measurement": "Kd", "setting": "wt AgnB2 (LeuRS) [4]", "value": 4.4, "unit": "nM"},
      {"measurement": "Kd", "setting": "LeuRSAt [5]", "value": 1.6, "unit": "nM"},
      {"measurement": "inhibition of Leu-AMP formation", "setting": "LeuRSAt [6]; 25 nM Leu-AMS, 1 nM enzyme", "value": "potently inhibits"}
    ]},
    {"compound": "CC(C)C[C@H](N)C(=O)O", "note": "[Leucine]", "values": [
      {"measurement": "Km", "setting": "[7]", "value": "38 ± 3.2", "unit": "µM"},
      {"measurement": "kcat", "setting": "[7]", "value": "0.38 ± 0.01", "unit": "s⁻¹"}
    ]},
    {"compound": "Nc1ncnc2c1ncn2[C@@H]1O[C@H](COP(=O)(O)OP(=O)(O)OP(=O)(O)O)[C@@H](O)[C@H]1O", "note": "[ATP]", "values": [
      {"measurement": "Km", "setting": "wt AgnB2 (LeuRS) [2]; [8]", "value": "95.4 ± 18.3", "unit": "µM"},
      {"measurement": "kcat", "setting": "wt AgnB2 (LeuRS) [2]; [8]", "value": "0.43 ± 0.02", "unit": "s⁻¹"},
      {"measurement": "Km", "setting": "[7]", "value": "396 ± 83", "unit": "µM"},
      {"measurement": "kcat", "setting": "[7]", "value": "0.33 ± 0.02", "unit": "s⁻¹"},
      {"measurement": "Km", "setting": "wt AgnB2 (LeuRS) [3]; ATP-PPi exchange, substrate", "value": "1050 ± 140", "unit": "µM"},
      {"measurement": "kcat", "setting": "wt AgnB2 (LeuRS) [3]; ATP-PPi exchange, substrate", "value": "67 ± 8.9", "unit": "s⁻¹"},
      {"measurement": "Km", "setting": "LeuRSAt [6]; ATP-PPi exchange, substrate", "value": "357 ± 22", "unit": "µM"},
      {"measurement": "kcat", "setting": "LeuRSAt [6]; ATP-PPi exchange, substrate", "value": "87 ± 1.5", "unit": "s⁻¹"}
    ]}
  ]
}
